Measured values published in patent US20040142968A1, “Method and kit for treating lower bowel pain” (priority 2003, published 2004).

Experiments:
[1] = test system: patient with bowel pain associated with menses; details: open injection at 4 hours after the placebo saline administration
Method: The patients were greeted in a waiting room, escorted to an examination room, and introduced to the study. […] A one-hour NH condition preceded either the RL or RP administration in both sessions. Thus, patients rated their rectal pain for one hour at 15-minute intervals before injection of the rectal agent (NH) and 15 min, 30 min, 45 min, 1 hour, 2 hours, 4 hours, and 6 hours afterwards. Both agents were applied through a plastic syringe. […] After all of the sessions were completed, the patients were debriefed.

[2] = test system: patients with pain associated with IBS
From the text: Ten Caucasian pre-menopausal women with IBS participated in the study. The mean age was 33 (±4) years. All participants completed a GI symptom questionnaire and received a physical examination by an experienced gastroenterologist. The diagnosis of IBS was made based on the ROME II criteria and exclusion of organic disease (Thompson et al., 1999). All the patients had diarrhea-predominant IBS and had symptoms for at least 5 years. All of the IBS patients were carefully screened to verify that each patient had no clinical criteria for fibromyalgia or chronic pain condition.
All subjects were asked to fast for 12 hours and self-administer one Fleets® enema (CB Fleet Co., Inc., Lynchberg, Va.) at least two hours prior to arriving for the experimental procedures. […] A validated visual analogue scale was used to measure the subjects' perceived pain (Price, 1994).
A one-hour NH condition preceded either the RL or RP administration in both sessions. Thus, patients rated their rectal pain for one hour at 15-minute intervals before injection of the rectal agent (NH) and 15 min, 30 min, 45 min, 1 hour, 2 hours, 4 hours, and 6 hours afterwards. Both agents were applied through a plastic syringe.
The pain rating at each post-treatment time point was subtracted from the baseline rating to create a pain intensity difference score (PID) for each post-treatment time point of each patient. […]

## CCN(CC)CC(=O)Nc1c(C)cccc1C [lidocaine]
[1]
  effect of open injection on bowel pain: reversed bowel pain
[2]
  duration of pain ameliorating effect in IBS patients: at least 4 hours
